Test results as given in ChEMBL document CHEMBL1145312, “Structure-activity relationships of triazolopyridine oxazole p38 inhibitors: identification of candidates for clinical development” (Bioorg Med Chem Lett, 2006).

Legend:
Monocyte = experiment: Inhibition of LPS-induced TNFalpha production in human monocytes; assay type: functional, cell-based
[1] = target: T1, Mitogen-activated protein kinase 12 (Homo sapiens, UniProt P53778); experiment: Inhibition of p38-gamma
T1 sequence (P53778 whole entry): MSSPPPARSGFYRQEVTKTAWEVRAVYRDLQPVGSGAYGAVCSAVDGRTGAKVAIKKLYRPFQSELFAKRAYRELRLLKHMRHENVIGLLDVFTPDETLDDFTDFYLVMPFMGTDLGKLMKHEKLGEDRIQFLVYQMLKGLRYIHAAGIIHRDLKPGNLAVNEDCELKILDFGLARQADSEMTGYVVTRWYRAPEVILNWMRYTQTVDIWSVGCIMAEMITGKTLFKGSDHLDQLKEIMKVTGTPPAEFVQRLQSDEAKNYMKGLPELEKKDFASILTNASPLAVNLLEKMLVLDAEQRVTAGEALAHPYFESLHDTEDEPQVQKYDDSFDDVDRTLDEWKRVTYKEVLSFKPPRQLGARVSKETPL

[2] = target: T2, Mitogen-activated protein kinase 13 (Homo sapiens, UniProt O15264); experiment: Inhibition of p38delta
T2 sequence (O15264 whole entry): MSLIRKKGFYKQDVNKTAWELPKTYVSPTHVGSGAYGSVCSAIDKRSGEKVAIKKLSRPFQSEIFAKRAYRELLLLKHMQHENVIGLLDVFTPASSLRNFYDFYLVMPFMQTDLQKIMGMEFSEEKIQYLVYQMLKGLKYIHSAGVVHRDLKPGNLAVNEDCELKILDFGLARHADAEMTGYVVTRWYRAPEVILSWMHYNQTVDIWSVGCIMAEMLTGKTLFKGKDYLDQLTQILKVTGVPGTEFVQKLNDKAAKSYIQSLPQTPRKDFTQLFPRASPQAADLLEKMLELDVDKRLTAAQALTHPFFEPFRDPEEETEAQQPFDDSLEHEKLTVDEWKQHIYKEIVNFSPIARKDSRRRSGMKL

[3] = target: Dual specificity mitogen-activated protein kinase kinase 1 (Homo sapiens, UniProt Q02750); experiment: Inhibition of MKK1
Chain of Dual specificity mitogen-activated protein kinase kinase 1 (Q02750 whole entry): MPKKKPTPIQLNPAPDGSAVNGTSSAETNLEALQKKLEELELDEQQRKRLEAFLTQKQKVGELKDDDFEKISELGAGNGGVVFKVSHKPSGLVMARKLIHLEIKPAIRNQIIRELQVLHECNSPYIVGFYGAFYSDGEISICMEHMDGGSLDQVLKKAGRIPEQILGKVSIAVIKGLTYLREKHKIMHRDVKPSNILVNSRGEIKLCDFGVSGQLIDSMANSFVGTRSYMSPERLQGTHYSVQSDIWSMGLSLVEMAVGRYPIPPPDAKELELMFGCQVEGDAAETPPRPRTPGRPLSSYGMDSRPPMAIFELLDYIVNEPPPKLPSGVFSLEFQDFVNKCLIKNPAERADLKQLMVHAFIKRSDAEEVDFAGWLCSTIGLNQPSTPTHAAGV

[4] = target: c-Jun N-terminal kinase, JNK (Homo sapiens, UniProt P45983+P53779+P45984); experiment: Inhibition of JNK; assay type: protein assay
[5] = target: Ribosomal protein S6 kinase alpha-1 (Homo sapiens, UniProt Q15418); experiment: Inhibition of MAPKAP-K1a
Chain of Ribosomal protein S6 kinase alpha-1 (Q15418 whole entry): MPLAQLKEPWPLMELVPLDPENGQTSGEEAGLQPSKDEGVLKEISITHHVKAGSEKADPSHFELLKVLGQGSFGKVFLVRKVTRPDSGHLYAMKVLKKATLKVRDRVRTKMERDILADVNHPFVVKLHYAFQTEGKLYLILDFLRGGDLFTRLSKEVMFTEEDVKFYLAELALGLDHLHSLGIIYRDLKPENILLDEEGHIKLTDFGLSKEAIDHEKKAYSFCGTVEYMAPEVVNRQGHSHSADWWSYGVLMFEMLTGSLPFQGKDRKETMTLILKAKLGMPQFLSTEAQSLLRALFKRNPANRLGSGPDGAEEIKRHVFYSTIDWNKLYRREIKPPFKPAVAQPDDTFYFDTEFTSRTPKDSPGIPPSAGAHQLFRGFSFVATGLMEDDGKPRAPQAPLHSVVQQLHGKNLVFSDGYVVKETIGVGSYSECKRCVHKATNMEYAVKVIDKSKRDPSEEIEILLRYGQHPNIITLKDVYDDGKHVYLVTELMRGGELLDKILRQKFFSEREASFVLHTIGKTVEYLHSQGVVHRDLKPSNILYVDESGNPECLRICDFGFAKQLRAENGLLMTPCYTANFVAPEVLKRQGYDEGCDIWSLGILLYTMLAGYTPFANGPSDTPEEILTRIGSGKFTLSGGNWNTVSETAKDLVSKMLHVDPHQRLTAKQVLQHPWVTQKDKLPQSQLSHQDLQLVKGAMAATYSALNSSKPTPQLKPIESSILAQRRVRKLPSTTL

[6] = target: Ribosomal protein S6 kinase alpha-5 (Homo sapiens, UniProt O75582); experiment: Inhibition of MSK1
Chain of Ribosomal protein S6 kinase alpha-5 (O75582 whole entry): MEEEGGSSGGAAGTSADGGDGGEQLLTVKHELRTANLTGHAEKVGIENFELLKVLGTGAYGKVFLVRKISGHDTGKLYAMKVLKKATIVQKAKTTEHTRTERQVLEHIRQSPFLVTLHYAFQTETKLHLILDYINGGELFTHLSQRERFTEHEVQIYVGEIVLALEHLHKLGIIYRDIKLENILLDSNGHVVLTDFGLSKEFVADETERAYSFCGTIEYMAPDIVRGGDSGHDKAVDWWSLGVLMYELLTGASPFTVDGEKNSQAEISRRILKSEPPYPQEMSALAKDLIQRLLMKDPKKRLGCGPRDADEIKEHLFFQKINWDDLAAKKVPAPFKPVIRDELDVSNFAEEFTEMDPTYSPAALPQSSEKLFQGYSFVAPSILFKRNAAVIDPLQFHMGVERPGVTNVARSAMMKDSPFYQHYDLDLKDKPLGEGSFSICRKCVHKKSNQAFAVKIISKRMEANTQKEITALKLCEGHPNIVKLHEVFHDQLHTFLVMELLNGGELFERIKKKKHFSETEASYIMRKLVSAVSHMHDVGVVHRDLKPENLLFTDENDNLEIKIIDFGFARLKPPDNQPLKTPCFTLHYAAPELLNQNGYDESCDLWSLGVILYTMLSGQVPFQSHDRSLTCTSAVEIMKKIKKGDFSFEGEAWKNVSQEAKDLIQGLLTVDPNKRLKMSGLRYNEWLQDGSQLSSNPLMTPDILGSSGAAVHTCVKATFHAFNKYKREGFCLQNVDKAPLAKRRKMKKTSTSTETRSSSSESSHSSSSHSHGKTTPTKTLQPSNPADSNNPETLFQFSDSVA

[7] = target: T3, MAP kinase-activated protein kinase 5 (Homo sapiens, UniProt Q8IW41); experiment: Inhibition of PRAK
T3 sequence (Q8IW41 whole entry): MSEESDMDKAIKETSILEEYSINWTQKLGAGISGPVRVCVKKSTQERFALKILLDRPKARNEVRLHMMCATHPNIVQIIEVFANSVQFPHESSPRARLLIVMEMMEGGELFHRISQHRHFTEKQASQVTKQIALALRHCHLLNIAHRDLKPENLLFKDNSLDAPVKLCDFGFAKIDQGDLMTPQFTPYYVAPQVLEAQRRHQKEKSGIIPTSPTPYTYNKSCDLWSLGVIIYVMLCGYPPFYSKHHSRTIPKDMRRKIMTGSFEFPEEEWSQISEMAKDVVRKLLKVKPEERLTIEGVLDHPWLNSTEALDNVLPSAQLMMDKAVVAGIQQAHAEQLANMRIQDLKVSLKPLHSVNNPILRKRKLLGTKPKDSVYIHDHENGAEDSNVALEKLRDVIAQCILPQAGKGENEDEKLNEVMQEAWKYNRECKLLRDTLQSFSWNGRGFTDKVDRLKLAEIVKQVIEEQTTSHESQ

[8] = target: Protein kinase C alpha type (Homo sapiens, UniProt P17252); experiment: Inhibition of PKCalpha
[9] = Inhibition of PKC
[10] = target: T4, 3-phosphoinositide-dependent protein kinase 1 (Homo sapiens, UniProt O15530); experiment: Inhibition of PDK1
T4 sequence (O15530 whole entry): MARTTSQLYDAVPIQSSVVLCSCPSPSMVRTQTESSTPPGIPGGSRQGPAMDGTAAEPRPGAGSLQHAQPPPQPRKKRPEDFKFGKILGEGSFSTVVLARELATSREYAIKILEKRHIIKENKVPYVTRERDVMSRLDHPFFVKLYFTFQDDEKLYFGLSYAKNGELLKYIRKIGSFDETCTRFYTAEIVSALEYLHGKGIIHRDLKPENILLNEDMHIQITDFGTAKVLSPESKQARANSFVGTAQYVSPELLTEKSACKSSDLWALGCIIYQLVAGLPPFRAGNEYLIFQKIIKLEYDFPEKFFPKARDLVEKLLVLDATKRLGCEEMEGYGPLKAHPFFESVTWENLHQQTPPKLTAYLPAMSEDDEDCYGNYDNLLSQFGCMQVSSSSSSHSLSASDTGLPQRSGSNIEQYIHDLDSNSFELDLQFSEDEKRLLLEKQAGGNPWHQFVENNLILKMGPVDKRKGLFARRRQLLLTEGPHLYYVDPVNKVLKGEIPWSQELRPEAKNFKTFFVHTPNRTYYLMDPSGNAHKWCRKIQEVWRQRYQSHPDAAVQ

[11] = target: T5, Serine/threonine-protein kinase Sgk1 (Homo sapiens, UniProt O00141); experiment: Inhibition of SGK
T5 sequence (O00141 whole entry): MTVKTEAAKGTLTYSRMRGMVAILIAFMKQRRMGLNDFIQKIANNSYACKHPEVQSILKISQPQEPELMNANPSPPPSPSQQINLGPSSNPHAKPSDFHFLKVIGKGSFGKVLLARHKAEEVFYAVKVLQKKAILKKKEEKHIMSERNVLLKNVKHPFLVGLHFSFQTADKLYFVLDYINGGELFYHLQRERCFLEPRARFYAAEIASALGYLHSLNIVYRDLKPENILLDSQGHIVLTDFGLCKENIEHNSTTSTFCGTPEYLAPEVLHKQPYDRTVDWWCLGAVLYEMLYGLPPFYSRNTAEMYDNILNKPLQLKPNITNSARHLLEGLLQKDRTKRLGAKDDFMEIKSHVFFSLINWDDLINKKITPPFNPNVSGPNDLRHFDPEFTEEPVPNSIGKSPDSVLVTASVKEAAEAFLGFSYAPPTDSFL

[12] = target: RAC-alpha serine/threonine-protein kinase (Homo sapiens, UniProt P31749); experiment: Inhibition of PKBalpha
Chain of RAC-alpha serine/threonine-protein kinase (P31749 whole entry): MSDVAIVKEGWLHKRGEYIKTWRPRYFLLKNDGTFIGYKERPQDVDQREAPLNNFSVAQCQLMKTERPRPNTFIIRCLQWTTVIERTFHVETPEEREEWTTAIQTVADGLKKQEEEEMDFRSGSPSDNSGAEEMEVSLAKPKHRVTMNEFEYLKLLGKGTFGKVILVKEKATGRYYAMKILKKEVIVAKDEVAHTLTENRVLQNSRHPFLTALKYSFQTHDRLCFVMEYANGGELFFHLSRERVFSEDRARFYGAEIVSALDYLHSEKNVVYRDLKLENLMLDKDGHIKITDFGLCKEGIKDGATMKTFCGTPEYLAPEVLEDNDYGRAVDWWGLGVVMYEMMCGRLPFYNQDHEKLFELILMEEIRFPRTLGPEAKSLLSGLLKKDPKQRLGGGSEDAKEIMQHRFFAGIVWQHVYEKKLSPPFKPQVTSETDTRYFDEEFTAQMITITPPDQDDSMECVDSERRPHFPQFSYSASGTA

[13] = target: Rho-associated protein kinase 2 (Homo sapiens, UniProt O75116); experiment: Inhibition of ROCK2
Chain of Rho-associated protein kinase 2 (O75116 whole entry): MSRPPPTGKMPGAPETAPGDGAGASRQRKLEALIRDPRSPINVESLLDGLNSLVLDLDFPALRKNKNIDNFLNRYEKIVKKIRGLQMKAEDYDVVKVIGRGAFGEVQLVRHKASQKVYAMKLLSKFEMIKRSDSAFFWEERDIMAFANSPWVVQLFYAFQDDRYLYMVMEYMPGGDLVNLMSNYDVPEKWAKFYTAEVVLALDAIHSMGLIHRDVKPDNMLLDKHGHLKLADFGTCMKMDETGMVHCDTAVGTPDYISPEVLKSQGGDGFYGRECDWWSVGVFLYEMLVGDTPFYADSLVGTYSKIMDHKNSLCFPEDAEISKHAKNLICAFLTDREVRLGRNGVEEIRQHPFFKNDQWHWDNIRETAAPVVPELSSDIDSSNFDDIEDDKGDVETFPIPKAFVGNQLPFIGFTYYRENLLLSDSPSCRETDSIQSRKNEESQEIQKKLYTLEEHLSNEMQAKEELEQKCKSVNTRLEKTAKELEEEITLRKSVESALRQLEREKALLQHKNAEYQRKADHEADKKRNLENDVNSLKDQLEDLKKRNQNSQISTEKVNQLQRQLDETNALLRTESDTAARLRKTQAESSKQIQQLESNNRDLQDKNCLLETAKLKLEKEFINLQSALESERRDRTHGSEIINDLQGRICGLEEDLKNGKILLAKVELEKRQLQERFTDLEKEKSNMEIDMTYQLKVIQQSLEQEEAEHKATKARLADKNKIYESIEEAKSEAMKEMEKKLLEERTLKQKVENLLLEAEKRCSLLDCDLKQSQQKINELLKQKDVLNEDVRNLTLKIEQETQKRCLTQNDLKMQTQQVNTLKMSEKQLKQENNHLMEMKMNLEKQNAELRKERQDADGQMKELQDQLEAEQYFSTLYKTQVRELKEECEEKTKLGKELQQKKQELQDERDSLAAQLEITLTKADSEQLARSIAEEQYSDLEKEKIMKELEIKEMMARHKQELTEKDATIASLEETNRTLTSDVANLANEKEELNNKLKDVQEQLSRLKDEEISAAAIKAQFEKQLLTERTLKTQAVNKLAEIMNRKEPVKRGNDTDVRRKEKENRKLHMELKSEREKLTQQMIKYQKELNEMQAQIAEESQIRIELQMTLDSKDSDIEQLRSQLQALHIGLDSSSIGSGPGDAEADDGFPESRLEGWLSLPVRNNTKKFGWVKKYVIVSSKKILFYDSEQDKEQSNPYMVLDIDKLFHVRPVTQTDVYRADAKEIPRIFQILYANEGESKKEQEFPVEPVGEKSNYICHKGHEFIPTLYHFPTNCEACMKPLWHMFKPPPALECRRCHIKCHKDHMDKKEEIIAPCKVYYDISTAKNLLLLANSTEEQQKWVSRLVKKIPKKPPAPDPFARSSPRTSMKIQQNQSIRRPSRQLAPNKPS

[14] = target: AMP-activated protein kinase, AMPK; experiment: Inhibition of AMPK; assay type: protein-complex assay
[15] = target: Tyrosine-protein kinase Lck (Homo sapiens, UniProt P06239); experiment: Inhibition of Lck
Chain of Tyrosine-protein kinase Lck (P06239 whole entry): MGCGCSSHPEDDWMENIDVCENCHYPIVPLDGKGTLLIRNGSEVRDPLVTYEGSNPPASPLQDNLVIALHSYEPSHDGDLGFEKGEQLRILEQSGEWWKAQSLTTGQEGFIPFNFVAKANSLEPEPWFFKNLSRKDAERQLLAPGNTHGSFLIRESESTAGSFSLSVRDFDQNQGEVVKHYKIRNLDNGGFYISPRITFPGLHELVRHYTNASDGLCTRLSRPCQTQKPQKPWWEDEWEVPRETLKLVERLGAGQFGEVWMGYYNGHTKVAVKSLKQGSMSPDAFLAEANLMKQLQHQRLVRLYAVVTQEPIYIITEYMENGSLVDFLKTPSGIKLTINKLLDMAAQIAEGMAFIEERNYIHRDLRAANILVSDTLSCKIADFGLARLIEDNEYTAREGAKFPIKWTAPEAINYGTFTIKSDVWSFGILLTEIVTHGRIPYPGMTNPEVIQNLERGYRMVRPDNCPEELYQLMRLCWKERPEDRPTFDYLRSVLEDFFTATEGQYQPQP

[16] = target: Tyrosine-protein kinase CSK (Homo sapiens, UniProt P41240); experiment: Inhibition of CSK
[17] = target: Cyclin-dependent kinase 2 (Homo sapiens, UniProt P24941); experiment: Inhibition of CDK2
[18] = Inhibition of PI3K
[19] = target: Dual specificity tyrosine-phosphorylation-regulated kinase 1A (Homo sapiens, UniProt Q13627); experiment: Inhibition of DYRK1a
[20] = Inhibition of phosphorylase kinase

Row | Structure (SMILES) | IC50 (Monocyte) | IC50 [1] | IC50 [2] | IC50 [3] | IC50 [4] | IC50 [5] | IC50 [6] | IC50 [7] | IC50 [8] | IC50 [9] | IC50 [10] | IC50 [11] | IC50 [12] | IC50 [13] | IC50 [14] | IC50 [16] | IC50 [17] | IC50 [18] | IC50 [19] | IC50 [20] | other results
1 | CC(C)(C)c1nnc2ccc(-c3ocnc3-c3ccc(F)cc3F)cn12 | 0.0126 µM | > 10 µM | > 10 µM | > 10 µM | > 10 µM | > 10 µM | > 10 µM | > 10 µM | > 10 µM | > 10 µM | > 10 µM | > 10 µM | > 10 µM | > 10 µM | > 10 µM | > 10 µM | > 10 µM | > 10 µM | > 10 µM | > 10 µM | IC50 [15]: > 10 µM
2 | CC(C)(C)c1nnc2ccc(-c3ocnc3-c3cc(F)c(F)cc3F)cn12 | 0.0083 µM | > 10 µM | > 10 µM | > 10 µM | > 10 µM | > 10 µM | > 10 µM | > 10 µM | > 10 µM | > 10 µM | > 10 µM | > 10 µM | > 10 µM | > 10 µM | > 10 µM | > 10 µM | > 10 µM | > 10 µM | > 10 µM | > 10 µM | 
3 | CC(C)c1nnc2ccc(-c3c[nH]nc3-c3cc(F)ccc3F)cn12 | 0.0141 µM | > 10 µM | > 10 µM | > 10 µM | > 10 µM | > 10 µM | > 10 µM | > 10 µM | > 10 µM | > 10 µM | > 10 µM | > 10 µM | > 10 µM | > 10 µM | > 10 µM | > 10 µM | > 10 µM | > 10 µM | > 10 µM | > 10 µM | IC50 [15]: > 10 µM

Now from value to molecule, other results behind:

Row | IC50 (Monocyte) | IC50 [1] | IC50 [2] | IC50 [3] | IC50 [4] | IC50 [5] | IC50 [6] | IC50 [7] | IC50 [8] | IC50 [9] | IC50 [10] | IC50 [11] | IC50 [12] | IC50 [13] | IC50 [14] | IC50 [16] | IC50 [17] | IC50 [18] | IC50 [19] | IC50 [20] | Structure (SMILES) | other results
4 | 0.052 µM | > 10 µM | > 10 µM | > 10 µM | > 10 µM | > 10 µM | > 10 µM | > 10 µM | > 10 µM | > 10 µM | > 10 µM | > 10 µM | > 10 µM | > 10 µM | > 10 µM | > 10 µM | > 10 µM | > 10 µM | > 10 µM | > 10 µM | CCNc1nnc2ccc(-c3ocnc3-c3ccc(F)cc3)cn12 | IC50 [15]: > 10 µM
5 | 0.0714 µM | > 10 µM | > 10 µM | > 10 µM | > 10 µM | > 10 µM | > 10 µM | > 10 µM | > 10 µM | > 10 µM | > 10 µM | > 10 µM | > 10 µM | > 10 µM | > 10 µM | > 10 µM | > 10 µM | > 10 µM | > 10 µM | > 10 µM | CC(C)c1nnc2ccc(-c3ocnc3-c3ccccc3)cn12 | 
